Patent US6521814B1, “Use of ligands for treatment of diseases responsive to retinoids” (Institut National de la Santa et de la Recherche Medicale, priority 1997, dated 2003)

Tests used:
RARα−/− F9 cells = assay: Morphological differentiation of F9 cell aggregates into visceral endoderm (VE)-like cells (morphology, RT-PCR of markers); format: cell-based, murine; conditions: 50 nM
Description: (§1) Similarly, after 10 d of treatment, >80% of the outer layer of RARα^−/− and RXRα^−/−/RARα^−/− cell aggregates differentiated into VE-like cells, which were indistinguishable from those of WT and RXRα^−/− cells (FIG. 23A, compare f with panels b and d; and Table 9). […] To exclude the possibility that this very poor differentiation of the RXRα^−/−/RARγ^−/− cells could be due to some clonal variation, rather than the presence of the RXRα-null mutation in the RARγ-null background, we expressed the RXRα cDNA in RXRα^−/−/RARγ^−/− cells.
(§2) F9 cells were cultured and induced to differentiate into primitive, parietal and visceral endoderm-like cells as previously described (Boylan, J., et al., Proc. Natl. Acad. Sci. USA 90:9601-9605 (1993); Clifford, J., et al., EMBO J. 15:4142-4155 (1996)).
(§3) RNA preparation, RT-PCR, and Southern blotting were performed as previously described (Bouillet, P., et al., Dev. Biol. 170:420-433 (1995); Roy, B., et al., Mol. Cell. Biol. 15:6481-6487 (1995)). The PCR primers and end-labeled oligonucleotide probes for collagen IVα1, laminin B1, α-fetoprotein (AFP), and 36B4, were described previously (Clifford, J., et al ., EMBO J. 15:4142-4155 (1996)). Transcript levels were quantified using a BAS 2000 bioimaging analyzer (Fuji Ltd., Tokyo, Japan), and were normalized to the corresponding 36B4 signals.

WT F9 cells = assay: as above; format: cell-based, murine; conditions: 50 nM, 10 d
Description: as §1, §2, §3

RXRα−/− F9 cells = assay: Proliferation of F9 cells in monolayer culture (cell counting, [3H]thymidine incorporation, cell cycle FACS); format: cell-based, murine; conditions: 1 μM, 5 d
D2R promoter = D2R promoter CAT reporter assay in transfected COS-1 cells, reporter alone; format: cell-based, rat; conditions: C1 reporter-transfected COS-1 cells, no receptor vector; 10^−7 M
Description: Expression Vectors. The C1 reporter construct was obtained by subcloning the HindIII fragment spanning the 5 ′ promoter region of the D2R gene (positions −495 to +273), in the reporter plasmid pBLCAT3 (Luckow, B. & Schütz, G., Nucleic Acids Res. 15:5490 (1987)). The C2 reporter plasmid was constructed by subcloning the SmaI-XhoI fragment (positions −76 to +273) in the same position. The C3 and C4 reporters were generated by cloning a 29 bp synthetic oligonucleotide corresponding, respectively, to the natural rat D2R RARE sequence and the mutated one into pBLCAT2 (Luckow, B. & Schütz, G., Nucleic Acids Res. 15:5490 (1987)). The polylinker in pBLCAT2 is located upstream of the herpes simplex virus 1 (HSV1) thymidine kinase (TK) promoter, from position −105 to +51. To measure transfection efficiency the plasmid pCH110 carrying the β-galactosidase gene (Pharmacia) was used. Mouse […], as well as mouse RXRα, β and γ expression vectors were derived from the parental pSG5 vector (Green, S., et al., Nucleic Acids Res. 16:369 (1988)).
COS-1 cells were used for transient transfection assays. Cells were grown in Dulbecco's modified Eagle's medium supplemented with 5% fetal calf serum.
Several hours before transfection, the medium was replaced with fresh medium containing 5% charcoal-treated FCS. […]

RXRα−/−/RARα−/− F9 cells = assay: Proliferation of F9 cells in monolayer culture (cell counting, [3H]thymidine incorporation, cell cycle FACS); format: cell-based, murine; conditions: 1 μM, 5 d

CC1=C(/C=C/C(C)=C/C=C/C(C)=C/C(=O)O)C(C)(C)CCC1 [tRA, all-trans retinoic acid]
proportion of outer layer of cells displaying VE morphology (RARα−/− F9 cells; 10 d): +++ (more than 80%) | outer layer of cell aggregates differentiated into VE-like cells (RARα−/− F9 cells; after 10 d): > 80% | induction of collagen type IVα1, laminin B1 and AFP mRNA (WT F9 cells; WT aggregates): similarly induced | proportion of outer layer of cells displaying VE morphology (WT F9 cells; WT): +++ (more than 80%) | proportion of cells in the G0 and G1 phases (FACS) (RXRα−/− F9 cells): 38% | changes in CAT activity (D2R promoter): no significant changes | proportion of cells in the G0 and G1 phases (FACS) (RXRα−/−/RARα−/− F9 cells): 40%
